In patent US9782394B2, “Inhibitors for ERG oncogene positive cancers” (The Henry M. Jackson Foundation for the Advancement of …, priority 2014, dated 2017):

Experiments:
VCaP cells = test: Cell growth inhibition, VCaP; type: cell-based; settings: for inhibition of cell growth: VCaP cells in culture, 1 μM and 10 μM
Description: (§1) 48 hours following plating of cells, the appropriate test compound is added to each well of the tissue culture dish at a predetermined concentration. The medium was replenished every 24 hours with fresh growth medium containing the same concentration of the same test compound for indicated period of the cell growth inhibition assay. Percent cell growth inhibition was calculated using a hemocytometer for estimating cell density in each of the test wells of the tissue culture dish and trypan blue dye exclusion microscopy and photography to estimate the fraction of viable cells in each test well.
(§2) The protein inhibition studies described above indicate that ERGi-USU is a selective inhibitor of ERG expression. To investigate whether ERGi-USU selectively arrested the growth of ERG positive cancer cells without arresting the growth of ERG negative cancer cells, a cell growth inhibition study was carried out using the following cancer and normal cell lines: ERG positive cancer cells (VCaP, COLO320, MOLT-4 and KG-1) cancer cells, ERG negative cancer cells (LNCaP, MDA PCa2b and LAPC4) cancer cells, normal prostate RWPE-1 and BPH-1 cells and normal endothelial HUVEC cells. Each cell line was cultured to achieve cells in logarithmic growth and these cells were then plated in 10 cm wells of a tissue culture dishes at a cell density of 2×10^6 cells per well. The plated cells were contacted with 0, 0.1, 0.5, 1.0, 5.0, and 10 μM concentrations of ERGi-USU for a period of 2, 4, 6 and 8 days. At the end of each time period, cells are recovered from the test plate, washed and the cell density and viability determined using a hemocytometer and trypan blue dye staining method. Cell growth inhibition was expressed as a graph correlating cell number to the concentration of ERGi-USU.
(§3) FIG. 4 illustrates the results of cell growth inhibition studies that were used to calculate the concentration of ERGi-USU needed for inhibiting 50% of the growth (IC50) of the cells mentioned above. As illustrated by this figure, ERGi-USU was a potent inhibitor of the growth of ERG positive cancer cells in culture.

LNCaP cells = test: Cell growth inhibition, LNCaP; type: cell-based; settings: for inhibition of cell growth: ERG negative LNCaP cells, 1 μM and 10 μM
Description: as §1, §2, §3

ERG protein = target: T1, ERG protein (Homo sapiens, UniProt P11308); test: In-cell Western primary screen for inhibitors of ERG expression in VCaP cells; type: cell-based; settings: single 1 μM dose, 48 hours, duplicate screen
T1 construct: contacting a TMPRSS2-ERG fusion positive prostate cancer (VCaP) cell line with a fixed concentration of each compound; host or cells: VCaP
T1 sequence (P11308 33-479 limits assumed): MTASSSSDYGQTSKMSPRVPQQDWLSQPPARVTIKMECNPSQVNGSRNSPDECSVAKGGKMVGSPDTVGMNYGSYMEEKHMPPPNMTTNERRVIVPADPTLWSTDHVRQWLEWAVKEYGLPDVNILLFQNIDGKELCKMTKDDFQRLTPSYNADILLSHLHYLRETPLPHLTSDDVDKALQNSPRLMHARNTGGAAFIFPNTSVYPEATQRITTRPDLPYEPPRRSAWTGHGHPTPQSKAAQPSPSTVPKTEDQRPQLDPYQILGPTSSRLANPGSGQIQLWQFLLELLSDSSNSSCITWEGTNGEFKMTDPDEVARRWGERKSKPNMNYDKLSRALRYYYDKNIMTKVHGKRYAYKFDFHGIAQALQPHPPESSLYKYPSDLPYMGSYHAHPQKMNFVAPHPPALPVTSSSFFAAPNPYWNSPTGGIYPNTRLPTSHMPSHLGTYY
Text: To identify ERG specific small molecule inhibitors, the present inventors screened a library of small molecule compounds, by contacting a TMPRSS2-ERG fusion positive prostate cancer (VCaP) cell line with a fixed concentration of each compound in the small molecule library. ERG protein expression was monitored using an In-cell Western blot assay (LI-COR Biosciences, Lincoln, Nebr.), using a highly specific ERG monoclonal antibody (CPDR ERG-mAb; 9FY) for detection. See Furusato et al., Prostate Cancer Prostatic Dis., 13:228-372 (2010); Mohamed et al., J. Cancer, 1:197-208, (2010); Miettinen et al., Am. J. Surg Pathol., 35:432-41 (2011); and U.S. patent publication No. 2012/0135018A1.
The TMPRSS2-ERG fusion positive prostate cancer cell line, VCaP (ATCC), was used to identify small molecule inhibitors of ERG expression. […] The inhibition of ERG expression was evaluated by an In-cell Western blot assay (LI-COR Biosciences, Lincoln, Nebr.) using the ERG specific CPDR ERG-MAb as further described below. […]
Inhibition of ERG expression by the test compounds was determined by an In-cell Western assay (LI-COR Biosciences, Lincoln, Nebr.). […]
The tissue culture plates were imaged on a Li-Cor Odyssey Infrared Imaging System and infrared signals were measured to provide values for ERG expression and cell number via DNA staining. […]

ERG mRNA = test: Quantitative RT-PCR analysis of ERG transcripts in VCaP cells; type: cell-based, human; settings: 1 μM, 24 hours
Description: The ERG inhibitors identified by the primary screen were used in a quantitative RT-PCR assay to evaluate their ability to inhibit ERG mRNA expression. Briefly, VCaP cells were treated at a concentration of 1 μM with each of the ten compounds for 24 hours. Following incubation with the test compounds the cells are lysed and the total RNA isolated. 200 ng of the total RNA was used for analysis of ERG transcripts by qRT-PCR using a pair of ERG primers specific for the coding sequence of tERG for analysis.

AR = test: Western blot analysis of AR expression in prostate cancer cells; type: cell-based; settings: 0.1-10 μM
Description: (§4) Cultured cells were treated at specific dosages with each of the test ERG inhibitors. Following incubation of the treated cells for indicated time period, cells were lysed using Mammalian Protein Extraction Reagent (M-PER; Pierce, Rockford, Ill.) containing a protease inhibitor cocktail and phosphatase inhibitor cocktails I & III (Sigma, St Louis, Mo.). Cell lysates containing 50 μg of total protein were electrophoresed through 4-12% Bis-Tris Gel (Invitrogen, Carlsbad, Calif.) and the cellular proteins were transferred to PVDF membrane (Invitrogen, Carlsbad, Calif.). Membranes were incubated at 4° C. for 12 hours with primary antibodies for AR, PSA, GAPDH, α-Tubulin, apoptosis markers and cell cycle regulators. Following exposure to primary antibodies, the membranes were washed with buffer (three times, 5 minutes each at room temperature) followed by incubation with relevant secondary antibodies for 1 hour at 24° C. Finally, the membranes were washed with buffer and developed using the ECL Western blot detection reagent (GE Health Care, Buckinghamshire, UK).
(§5) Briefly, ERG positive VCaP cells and ERG negative LNCaP, MDA PCa2b and LAPC4 cells in logarithmic growth were plated in 10 cm tissue culture dish at a cell density of 2×10^6 cells per dish. The plated cells were contacted with 0, 0.1, 0.5, 1.0, 5.0, and 10 μM concentrations of ERGi-USU for a period of 48 hours. Cells from each dish were then processed for Western blot analysis and alterations in the expression of ERG protein were monitored.

PSA = test: Western blot analysis of PSA expression in prostate cancer cells; type: cell-based; settings: 0.1-10 μM
Description: as §4, §5

COLO320 cells = test: Cell growth inhibition, COLO320; type: cell-based; settings: Homo sapiens, COLO 320; COLO320, ERG positive colon adenocarcinoma; read-out: Cell growth inhibition (ERGi-USU: IC50)
Description: as §1
(§6) The protein inhibition studies described above indicate that ERGi-USU is a selective inhibitor of ERG expression. […] At the end of each time period, cells are recovered from the test plate, washed and the cell density and viability determined using a hemocytometer and trypan blue dye staining method. Cell growth inhibition was expressed as a graph correlating cell number to the concentration of ERGi-USU. […]

MOLT-4 cells = test: Cell growth inhibition, MOLT-4; type: cell-based; settings: Homo sapiens; MOLT-4, ERG positive acute lymphoblastic leukemia; read-out: Cell growth inhibition (ERGi-USU: IC50)
Description: as §1, §6

KG-1 cells = test: Cell growth inhibition, KG-1; type: cell-based; settings: Homo sapiens; KG-1, ERG positive myeloid leukemia; read-out: Cell growth inhibition (ERGi-USU: IC50)
Description: as §1, §6

MDA PCa2b cells = test: Cell growth inhibition, MDA PCa2b; type: cell-based; settings: MDA-PCa-2b, ERG negative prostate cancer, read-out: Cell growth inhibition (ERGi-USU: IC50)
Description: as §1, §6

LAPC4 cells = test: Cell growth inhibition, LAPC4; type: cell-based; settings: Homo sapiens; LAPC4, ERG negative metastatic prostate cancer; read-out: Cell growth inhibition (ERGi-USU: IC50)
Description: as §1, §6

RWPE-1 cells = test: Cell growth inhibition, RWPE-1; type: cell-based; settings: Homo sapiens; RWPE-1, normal prostate; read-out: Cell growth inhibition (ERGi-USU: IC50)
Description: as §1, §6

BPH-1 cells = test: Cell growth inhibition, BPH-1; type: cell-based; settings: Homo sapiens; BPH-1, normal prostate; read-out: Cell growth inhibition (ERGi-USU: IC50)
Description: as §1, §6

HUVEC cells = test: Cell growth inhibition, HUVEC; type: cell-based; settings: Homo sapiens, ERG positive normal endothelial, read-out: Cell growth inhibition (ERGi-USU: IC50)
Description: as §1, §6

VCaP xenograft tumors = test: VCaP xenograft tumor growth inhibition in nude mice; type: in vivo; settings: male nude mice, 150 mg/kg intraperitoneally 3 times per week, versus vehicle control and 100 mg/kg
Description: Male athymic nude mice 6-8 weeks old and weighing 27 to 30 g were purchased from Charles River Laboratories. ERG harboring prostate cancer cells (VCaP) were trypsinized and washed twice with ice-cold PBS, and resuspended in ice-cold 50% matrigel in serum-free DMEM medium. A total of 4×10^6 cells/0.1 ml/mouse were subcutaneously injected into lower right dorsal flank of the mice. Prior to injection, mice were anesthetized with inhalation anesthesia (isoflurane). Tumor growth was monitored weekly after injection. Three weeks later when tumors were palpable mice were randomly separated into 2 experimental groups and one control group of 7 mice in each group. In the treatment groups mice were injected intraperitoneally (I.P) with 100 mg/kg of ERGi-USU or 150 mg/kg of ERGi-USU while the control group were injected with vehicle (1:1 [v/v], DMSO/PEG300) only. Growth in tumor volume was recorded weekly by digital caliper measurements and tumor volumes calculated using the ½ (L×W^2) formula, where L=length of tumor and W=width. Tumor volumes were compared between treated and control groups with repeated measurements and statistical significance of the results between the groups computed using students t-test and p values calculated.
Male nude mice were injected with about 4×10^6 VCaP cells and tumor growth was monitored. […] Tumor growth was monitored weekly.

[1] = AR positive/ERG negative LNCaP, MDA PCa2b and LAPC4 cells, 48 hours

In the case of `Oc1ccc2ccccc2c1/N=N/c1ccccn1` [ED-1], the “inhibition of cell growth” value (VCaP cells) is reported as “inhibited the growth of VCaP prostate cancer cells” and the “inhibition of cell growth” value (LNCaP cells) is reported as “no measurable inhibitory effect”.

For `Nc1c(O)ccc2ccccc12` [ED-2], the “inhibition of cell growth” value (VCaP cells) was “inhibited the growth of VCaP prostate cancer cells” and the “inhibition of cell growth” value (LNCaP cells) was “no measurable inhibitory effect”.

With `NC(c1ccccc1)c1c(O)ccc2ccccc12` (stereo not drawn) [ED-3] the “inhibition of cell growth” value (VCaP cells) was “inhibited the growth of VCaP prostate cancer cells” and the “inhibition of cell growth” value (LNCaP cells) was “no measurable inhibitory effect”.

With `Oc1ccc2ccccc2c1/N=N/c1nccs1` [ERGi-USU, 1-(thiazol-2-yldiazenyl)naphthalene-2-ol] the “inhibition of ERG protein expression (In-cell Western, normalized by cell number)” value (ERG protein) was “inhibitors of ERG protein expression”, the “inhibition of ERG mRNA expression (qRT-PCR)” value (“inhibition … (qRT-PCR)” for short) (ERG mRNA) was “inhibitors of ERG-mRNA expression” and the “inhibition of AR protein expression” value (AR; [1]) was “does not inhibit”. The “inhibition of AR protein expression” value (AR; VCaP cells) was “inhibits expression of PSA, and AR proteins”, the “inhibition of PSA protein expression” value (PSA; [1]) was “does not inhibit” and the “inhibition of PSA protein expression” value (PSA; VCaP cells) was “inhibits expression of PSA, and AR proteins”. For the same molecule, the IC50 (VCaP cells; Homo sapiens, VCaP, ERG positive metastatic prostate cancer, read-out: Cell growth inhibition (ERGi-USU: IC50)) was 300 nM, the IC50 (COLO320 cells) was 300 nM and the IC50 (MOLT-4 cells) was 50 nM. For the same molecule, the IC50 (KG-1 cells) was 200 nM, the IC50 (LNCaP cells; Homo sapiens, LNCaP, ERG negative metastatic prostate cancer, read-out: Cell growth inhibition (ERGi-USU: IC50)) was over 10000 nM and the IC50 (MDA PCa2b cells) was over 10000 nM. For the same molecule, the IC50 (LAPC4 cells) was over 10000 nM, the IC50 (RWPE-1 cells) was over 10000 nM and the IC50 (BPH-1 cells) was over 10000 nM. The IC50 (HUVEC cells) was over 10000 nM and the tumor volume (VCaP xenograft tumors) was “exhibited the smallest volumes”.

With `Cc1[nH]ccc2c1[nH]c1cc(=O)ccc12` [NSC72292] the “inhibition … (qRT-PCR)” value (ERG mRNA) was “inhibitors of ERG-mRNA expression”.

`Oc1ccc2ccccc2c1/N=N/c1nccs1` [NSC99629, reference compound] was tested, and the “inhibition … (qRT-PCR)” value (ERG mRNA) was “inhibitors of ERG-mRNA expression”, the “inhibition of AR protein expression” value (AR; VCaP cells) was “No appreciable inhibition” and the “inhibition of PSA protein expression” value (PSA; VCaP cells) was “No appreciable inhibition”.
